Source: US12358886B2, “Heterocyclic compounds for use in the treatment of cancer” (Artios Pharma Limited, priority 2019, dated 2025)

These molecules were tested against Polθ protein (amino acids 2-2590) (Homo sapiens, UniProt O75417) (assay: Polθ full length enzyme potency assay (PicoGreen)). Details: Polθ IC50 (nM), full length N-His, C-term FLAG tagged Polθ, PicoGreen fluorescence, 12 point concentration response.
Polθ protein (amino acids 2-2590), sequence (O75417 2-2590): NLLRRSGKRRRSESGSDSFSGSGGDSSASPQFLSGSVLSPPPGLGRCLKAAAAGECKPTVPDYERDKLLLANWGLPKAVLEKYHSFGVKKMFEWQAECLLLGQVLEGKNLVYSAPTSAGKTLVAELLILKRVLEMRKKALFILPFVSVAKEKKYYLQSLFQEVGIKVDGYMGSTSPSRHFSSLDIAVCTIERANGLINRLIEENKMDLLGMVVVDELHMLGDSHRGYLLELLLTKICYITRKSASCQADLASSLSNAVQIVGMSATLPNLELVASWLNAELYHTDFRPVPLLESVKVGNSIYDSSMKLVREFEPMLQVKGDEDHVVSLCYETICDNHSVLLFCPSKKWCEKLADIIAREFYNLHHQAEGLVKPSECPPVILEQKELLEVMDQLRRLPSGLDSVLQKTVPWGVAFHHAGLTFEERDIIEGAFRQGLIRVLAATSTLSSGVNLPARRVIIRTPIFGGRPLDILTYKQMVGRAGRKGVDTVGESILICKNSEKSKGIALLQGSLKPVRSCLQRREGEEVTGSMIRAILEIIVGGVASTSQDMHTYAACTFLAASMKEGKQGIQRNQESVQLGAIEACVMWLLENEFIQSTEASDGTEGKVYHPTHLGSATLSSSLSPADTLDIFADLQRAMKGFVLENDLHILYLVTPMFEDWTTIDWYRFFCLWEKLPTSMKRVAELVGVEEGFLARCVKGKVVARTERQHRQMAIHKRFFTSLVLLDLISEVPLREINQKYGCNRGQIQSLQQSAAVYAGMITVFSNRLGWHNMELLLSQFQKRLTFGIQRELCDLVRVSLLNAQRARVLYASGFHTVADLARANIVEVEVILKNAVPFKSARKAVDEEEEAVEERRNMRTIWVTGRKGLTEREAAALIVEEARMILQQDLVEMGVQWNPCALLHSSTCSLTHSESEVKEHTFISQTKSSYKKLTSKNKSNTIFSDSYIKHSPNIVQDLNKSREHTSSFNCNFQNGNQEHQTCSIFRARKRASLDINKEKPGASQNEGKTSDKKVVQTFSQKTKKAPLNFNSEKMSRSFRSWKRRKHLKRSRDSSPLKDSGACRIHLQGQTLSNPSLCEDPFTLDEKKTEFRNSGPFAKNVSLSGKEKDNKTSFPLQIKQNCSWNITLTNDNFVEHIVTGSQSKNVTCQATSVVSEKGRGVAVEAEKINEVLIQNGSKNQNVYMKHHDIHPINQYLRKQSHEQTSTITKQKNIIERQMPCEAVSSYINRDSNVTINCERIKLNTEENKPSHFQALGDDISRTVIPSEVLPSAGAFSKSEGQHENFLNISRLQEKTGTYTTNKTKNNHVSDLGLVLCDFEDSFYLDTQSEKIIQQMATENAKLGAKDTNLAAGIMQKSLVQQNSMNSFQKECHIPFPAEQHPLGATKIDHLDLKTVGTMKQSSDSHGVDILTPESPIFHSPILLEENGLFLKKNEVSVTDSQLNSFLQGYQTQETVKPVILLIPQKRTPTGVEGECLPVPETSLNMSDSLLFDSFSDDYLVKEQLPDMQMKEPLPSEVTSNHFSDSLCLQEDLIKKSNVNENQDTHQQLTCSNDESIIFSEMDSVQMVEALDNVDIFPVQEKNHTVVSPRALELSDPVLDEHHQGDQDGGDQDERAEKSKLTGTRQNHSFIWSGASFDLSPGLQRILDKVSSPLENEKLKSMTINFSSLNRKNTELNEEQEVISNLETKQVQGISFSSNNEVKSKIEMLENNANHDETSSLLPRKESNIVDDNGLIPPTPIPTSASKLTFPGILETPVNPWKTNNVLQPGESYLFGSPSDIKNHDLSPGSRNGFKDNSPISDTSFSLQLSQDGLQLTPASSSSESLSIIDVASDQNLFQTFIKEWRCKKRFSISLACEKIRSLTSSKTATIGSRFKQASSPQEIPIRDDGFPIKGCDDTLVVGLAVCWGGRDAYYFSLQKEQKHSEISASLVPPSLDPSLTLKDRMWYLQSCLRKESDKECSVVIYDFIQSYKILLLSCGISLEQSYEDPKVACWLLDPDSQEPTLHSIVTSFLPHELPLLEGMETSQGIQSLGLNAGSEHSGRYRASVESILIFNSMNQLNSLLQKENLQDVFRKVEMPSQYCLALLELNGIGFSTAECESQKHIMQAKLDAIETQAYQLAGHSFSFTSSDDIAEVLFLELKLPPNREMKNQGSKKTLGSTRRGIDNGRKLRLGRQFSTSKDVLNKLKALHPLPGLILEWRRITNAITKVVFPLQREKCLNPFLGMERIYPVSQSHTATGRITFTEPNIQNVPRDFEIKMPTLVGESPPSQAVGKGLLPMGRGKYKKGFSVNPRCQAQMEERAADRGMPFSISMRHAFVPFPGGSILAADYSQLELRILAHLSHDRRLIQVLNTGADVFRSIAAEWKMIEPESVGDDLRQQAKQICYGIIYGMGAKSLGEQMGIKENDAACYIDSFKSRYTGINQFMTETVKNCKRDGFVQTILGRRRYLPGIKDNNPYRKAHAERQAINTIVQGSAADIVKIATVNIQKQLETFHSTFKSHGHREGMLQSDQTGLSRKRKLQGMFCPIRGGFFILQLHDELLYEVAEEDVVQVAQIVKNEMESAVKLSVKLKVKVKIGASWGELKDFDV
Experimental: Polθ Full Length Enzyme Potency Assay
PicoGreen assay was used to measure the ability of compounds to inhibit the activity of Polθ in vitro. […] DMSO concentration was maintained at 1% by back filling with DMSO solution. […] This was dispensed into each well of the compound plate using a VIAFLO 16 channel manual pipette (Integra) and pre-incubated at rt for 30 min. 3 μL of 2× working solution of dNTPs (40 μM) (dATP, dCTP, dGTP, dTTP; Sigma D6500, D4635, D4010, T0251) diluted in assay buffer was then added and the reaction incubated for 60 min at rt. The reaction was stopped by addition of 10 mM EDTA, 25 mM Tris pH 7.5 and 1:200 dilution of PicoGreen dye (Invitrogen P7581).

SMILES | IC50 [nM]
Cc1cc(C(F)(F)F)cc(N2C(=O)N(CC3(O)CNC3)C[C@H]2C(=O)N(C)c2ccc(F)c(Cl)c2F)n1 [Example 224, (S)—N-(3-Chloro-2,4-difluorophenyl)-1-((3-hydroxyazetidin-3-yl)methyl)-N-methyl-3-(6-methyl-4-(trifluoromethyl)pyridin-2-yl)-2-oxoimidazolidine-4-carboxamide] | 6
Cc1cc(C(F)(F)F)cc(N2C(=O)N(CC3(O)CNC3)C[C@H]2C(=O)N(C)c2ccc(F)c(Cl)c2)n1 [Example 225, (S)—N-(3-Chloro-4-fluorophenyl)-1-((3-hydroxyazetidin-3-yl)methyl)-N-methyl-3-(6-methyl-4-(trifluoromethyl)pyridin-2-yl)-2-oxoimidazolidine-4-carboxamide] | 17
Cc1cc(C(F)(F)F)cc(N2C(=O)N(CC(O)CO)C[C@H]2C(=O)N(C)c2ccc(F)c(Cl)c2F)n1 (stereo partly drawn) [Example 226, (4S)—N-(3-Chloro-2,4-difluorophenyl)-1-(2,3-dihydroxypropyl)-N-methyl-3-(6-methyl-4-(trifluoromethyl)pyridin-2-yl)-2-oxoimidazolidine-4-carboxamide] | 19
Cc1cc(C(F)(F)F)cc(N2C(=O)N(CCOS(N)(=O)=O)C[C@H]2C(=O)N(C)c2ccc(F)c(Cl)c2F)n1 [Example 227, (S)-2-(4-((3-Chloro-2,4-difluorophenyl)(methyl)carbamoyl)-3-(6-methyl-4-(trifluoromethyl)pyridin-2-yl)-2-oxoimidazolidin-1-yll sulfamate] | 6
Cc1cc(C(F)(F)F)cc(N2C(=O)N(CCN=S(C)(C)=O)C[C@H]2C(=O)N(C)c2ccc(F)c(Cl)c2)n1 [Example 228, (S)—N-(3-Chloro-4-fluorophenyl)-1-(2-((dimethyl(oxo)-16-sulfaneylidene)amino)ethyl)-N-methyl-3-(6-methyl-4-(trifluoromethyl)pyridin-2-yl)-2-oxoimidazolidine-4-carboxamide] | 62
Cc1cc(C(F)(F)F)cc(N2C(=O)N(CC(O)CO)C[C@H]2C(=O)N(c2ccc(F)c(Cl)c2)C2CC2)n1 (stereo partly drawn) [Example 231, (4S)—N-(3-Chloro-4-fluorophenyl)-N-cyclopropyl-1-(2,3-dihydroxypropyl)-3-(6-methyl-4-(trifluoromethyl)pyridin-2-yl)-2-oxoimidazolidine-4-carboxamide] | 94
Cc1cc(C(F)(F)F)cc(N2C(=O)N(CCC(O)CO)C[C@H]2C(=O)N(C)c2ccc(F)c(Cl)c2)n1 (stereo partly drawn) [Example 232, (4S)—N-(3-Chloro-4-fluorophenyl)-1-(3,4-dihydroxybutyl)-N-methyl-3-(6-methyl-4-(trifluoromethyl)pyridin-2-yl)-2-oxoimidazolidine-4-carboxamide] | 15
Cc1cc(C(F)(F)F)c(C#N)c(N2[C@H](C)CC[C@H]2C(=O)N(C)c2ccc(F)c(Cl)c2)n1 [Example 241, (2S,5R)—N-(3-Chloro-4-fluorophenyl)-1-(3-cyano-6-methyl-4-(trifluoromethyl)pyridin-2-yl)-N,5-dimethylpyrrolidine-2-carboxamide] | 240
Cc1cc(C(F)(F)F)c(C#N)c(N2[C@@H](C)CC[C@H]2C(=O)N(C)c2ccc(F)c(Cl)c2)n1 [Example 242, (2S,5S)—N-(3-Chloro-4-fluorophenyl)-1-(3-cyano-6-methyl-4-(trifluoromethyl)pyridin-2-yl)-N,5-dimethylpyrrolidine-2-carboxamide] | 311
Cc1cc(C(F)(F)F)c(C#N)c(N2CCC[C@H]2C(=O)N(C)c2ccc3ccn(C)c3n2)n1 [Example 243, (S)-1-(3-Cyano-6-methyl-4-(trifluoromethyl)pyridin-2-yl)-N-methyl-N-(1-methyl-1H-pyrrolo[2,3-b]pyridin-6-yl)pyrrolidine-2-carboxamide] | 39
Cc1cc(C(F)(F)F)c(C#N)c(N2CCC[C@H]2C(=O)N(C)c2cc(Cl)c3ccn(C)c3n2)n1 [Example 244, (S)—N-(4-Chloro-1-methyl-pyrrolo[2,3-b]pyridin-6-yl)-1-[3-cyano-6-methyl-4-(trifluoromethyl)-2-pyridyl]-N-methyl-pyrrolidine-2-carboxamide] | 130
Cc1cc(C(F)(F)F)c(C#N)c(N2CCC[C@H]2C(=O)N(C)c2ccc3c(n2)N(C)CCO3)n1 [Example 245, (S)-1-(3-Cyano-6-methyl-4-(trifluoromethyl)pyridin-2-yl)-N-methyl-N-(4-methyl-3,4-dihydro-2H-pyrido[3,2-b][1,4]oxazin-6-yl)pyrrolidine-2-carboxamide] | 74

More lines, now with the values ahead:

IC50 [nM] | SMILES
3 | Cc1cc(C(F)(F)F)cc(N2C(=O)NC[C@H]2C(=O)N(C)c2ccc3cc[nH]c3n2)n1 [Example 233, (S)—N-Methyl-3-(6-methyl-4-(trifluoromethyl)pyridin-2-yl)-2-oxo-N-(1H-pyrrolo[2,3-b]pyridin-6-yl)imidazolidine-4-carboxamide]
5 | Cc1cc(C(F)(F)F)cc(N2C(=O)NC[C@H]2C(=O)N(C)c2ccc3ccn(C)c3n2)n1 [Example 234, (S)—N-Methyl-N-(1-methyl-1H-pyrrolo[2,3-b]pyridin-6-yl)-3-(6-methyl-4-(trifluoromethyl)pyridin-2-yl)-2-oxoimidazolidine-4-carboxamide]
27 | Cc1cc(C(F)(F)F)cc(N2C(=O)NC[C@H]2C(=O)N(C)c2ccc3cnn(C)c3c2)n1 [Example 235, (S)—N-Methyl-N-(1-methyl-1H-indazol-6-yl)-3-(6-methyl-4-(trifluoromethyl)pyridin-2-yl)-2-oxoimidazolidine-4-carboxamide]
14 | Cc1cc(C(F)(F)F)cc(N2C(=O)NC[C@H]2C(=O)N(C)c2ccc3occ(C)c3n2)n1 [Example 236, (S)—N-Methyl-3-(6-methyl-4-(trifluoromethyl)pyridin-2-yl)-N-(3-methylfuro[3,2-b]pyridin-5-yl)-2-oxoimidazolidine-4-carboxamide]
37 | Cc1cc(C(F)(F)F)cc(N2C(=O)NC[C@H]2C(=O)N(C)c2ccc3sccc3n2)n1 [Example 237, (S)—N-Methyl-3-(6-methyl-4-(trifluoromethyl)pyridin-2-yl)-2-oxo-N-(thieno[3,2-b]pyridin-5-yl)imidazolidine-4-carboxamide]
28 | Cc1cc(C(F)(F)F)cc(N2C(=O)NC[C@H]2C(=O)N(C)c2ccc3c(C)n[nH]c3c2)n1 [Example 238, (S)—N-Methyl-N-(3-methyl-1H-indazol-6-yl)-3-(6-methyl-4-(trifluoromethyl)pyridin-2-yl)-2-oxoimidazolidine-4-carboxamide]
6 | Cc1cc(C(F)(F)F)cc(N2C(=O)NC[C@H]2C(=O)N(C)c2ccc3c(F)c[nH]c3n2)n1 [Example 239, (S)—N-(3-Fluoro-1H-pyrrolo[2,3-b]pyridin-6-yl)-N-methyl-3-(6-methyl-4-(trifluoromethyl)pyridin-2-yl)-2-oxoimidazolidine-4-carboxamide]
7 | Cc1cc(C(F)(F)F)cc(N2C(=O)NC[C@H]2C(=O)N(C)c2ccc3c(Cl)c[nH]c3n2)n1 [Example 240, (S)—N-(3-Chloro-1H-pyrrolo[2,3-b]pyridin-6-yl)-N-methyl-3-(6-methyl-4-(trifluoromethyl)pyridin-2-yl)-2-oxoimidazolidine-4-carboxamide]
